Reference: US20090047672A1, “Telomerase RNA Subunit and Methods of Use Thereof” (priority 2005, published 2009)

System: H2AX
Assay: Immunoblotting of DNA damage response (H2AX phosphorylation)
Assay type: cell-based, human
Details: BJ fibroblasts expressing control shRNA, 10 μM for 4 hrs
Description: The antibodies used in this study included: rabbit anti-H2AX (Novus); rabbit anti—H2AX (Upstate Biotechnology); rabbit anti-H2B (Upstate Biotechnology); mouse anti-H3 (Upstate Biotechnology); rabbit anti-H4 (Upstate Biotechnology); rabbit anti-macro H2A.1 (Upstate Biotechnology); rabbit anti-dimethyl H3 (K9) (Upstate Biotechnology); rabbit anti-acetyl H3 (Lys9) (Upstate Biotechnology); rabbit anti-acetyl H4 (K12) (Upstate Biotechnology); goat anti-phospho-specific BRCA1 (Ser1497) (Santa Cruz); rabbit anti-ATM-pS1981 (Rockland); rabbit anti-ATM-S1981 (Rockland); and mouse anti-p53 (Ab6) (Oncogene). Cells were lysed in RIPA buffer (12.5 mM NaPO4, pH7.2, 2 mM EDTA, 50 mM NaF, 1.25% NP-40, 1.25% SDS, 0.1 mM DTT) except when specific conditions are noted. For extraction under low salt conditions, cells were lysed in a buffer comprised of 20 mM Tris-HCl, pH 7.4, 150 mM NaCl, 0.1% NP40, 0.1 mM DTT. For high salt condition extraction, cells were lysed in a buffer composed of 20 mM Tris-HCl, pH 7.4, 500 mM NaCl, 0.5% NP40, 0.1 mM DTT. For acid precipitation of histones, cells were homogenized in 0.2 N H2SO4 and centrifuged. Histones were precipitated by adding ¼ volume of 100% (w/v) TCA. The pellets were suspended in 100% ethanol and centrifuged again at 13,000×g. 10 μg of protein was subjected to immunoblotting.

Structure (SMILES): CCc1c2c(nc3ccc(OC(=O)N4CCC(N5CCCCC5)CC4)cc13)-c1cc3c(c(=O)n1C2)COC(=O)[C@]3(O)CC [irinotecan]
- Phosphorylation of H2AX after treatment with chemotherapeutic agent: induced phosphorylation of H2AX
